Measurements published in patent US20230000869A1, “NOVEL ALK2 INHIBITORS AND METHODS FOR INHIBITING BMP SIGNALING” (The Brigham and Women's Hospital, Inc., priority 2017, published 2023).

What was measured:
[1] = test system: TGFβ; assay: Luciferase reporter gene assay for TGFβ activity (HEK293T SBE-Luc SMAD2/3 reporter, TGFβ agonist); assay type: cell-based; details: Homo sapiens, HEK-293T, TGFβ 5 ng/mL
Description: (§1) All cell lines were cultured in DMEM, supplemented with […] and 1% Pen/Strep. All media reagents were obtained from Gibco. BMP6, BMP9, and TGFβ were obtained from R&D Systems. C2C12-BRE and HEK293T-SBE were kept in selection with 400 ug/mL G418 from Invivogen.
(§2) In this reporter gene cell based ALK2 and TGFβ assay, the C2C12 cell line was employed for the measurement of ALK2 activity, using a BRE-Luc SMAD1/5/8 reporter and BMP6 as the agonist. The HEK293T cell line was employed to measure TGFβ activity, using a SBE-Luc SMAD2/3 reporter and TGFβ as the agonist. Luciferase reporter assays were read using Promega Steady-Glo Luciferase Assay System.
(§3) Cells were plated in 96 well white clear bottom assay plates at 10 k cells/well for C2C12-BRE, 15 k cells/well for HEK293-SBE in DMEM containing 2% FBS 1% P/S. Cells were given a minimum of 4 hours in incubator at 37° C./5% CO2 to adhere prior to further treatment. Compounds were diluted in DMSO to a 10-point dilution curve and added to the plate to reach the following final concentrations: 10000, 3000, 1000, 300, 100, and 30 nM in the HEK293-SBE assay and 1000, 300, 100, 30, 10, 3, 1, 0.3 nM in the C2C12-BRE assay. Negative and positive control wells received 2 μL DMSO as vehicle treatment. Plates were returned to incubator for 45 minutes and then BMP6 and TGFB were added to a final concentration of 50 ng/mL and 5 ng/mL, respectively. Plates were returned to the incubator and left overnight. After a minimum of 18 hours post BMP6/TGFβ addition, the plates were read using Promega Steady-Glo Luciferase Assay System. A 1:1 mixture of prepared steady-glo and phenol free DMEM was prepared, and 50 μL/well was added to the assay plates whose media had been flicked off. Plates were given 10 minutes post steady-glo addition before luminescence was read on a Spectramax M5e microplate reader. Negative control wells were averaged and subtracted from all other wells on the plate. Inhibition was calculated as the percent of signal loss compared to the averaged positive control wells.

[2] = biological target: T1, ALK2 (Mus musculus, UniProt P37172); assay: Luciferase reporter gene assay for ALK2 activity (C2C12 BRE-Luc SMAD1/5/8 reporter, BMP6 agonist); assay type: cell-based; details: BMP6 50 ng/mL
T1 construct: endogenous in cells; host or cells: C2C12-BRE (BRE-Luc reporter line, G418 selection)
T1 sequence (P37172 21-509): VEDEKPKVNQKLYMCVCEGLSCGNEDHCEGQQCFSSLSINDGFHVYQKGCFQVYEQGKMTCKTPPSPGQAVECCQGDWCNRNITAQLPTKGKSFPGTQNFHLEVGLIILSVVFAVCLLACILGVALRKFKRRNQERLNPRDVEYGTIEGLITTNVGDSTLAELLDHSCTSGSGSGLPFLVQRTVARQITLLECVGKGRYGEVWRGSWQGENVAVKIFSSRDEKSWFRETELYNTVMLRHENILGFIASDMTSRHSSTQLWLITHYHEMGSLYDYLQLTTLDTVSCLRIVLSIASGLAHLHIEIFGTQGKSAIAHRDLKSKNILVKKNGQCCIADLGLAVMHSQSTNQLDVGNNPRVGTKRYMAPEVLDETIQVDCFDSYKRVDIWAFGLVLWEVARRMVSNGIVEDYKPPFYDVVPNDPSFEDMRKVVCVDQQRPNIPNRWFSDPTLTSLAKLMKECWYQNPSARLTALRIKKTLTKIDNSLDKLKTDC
Description: as §1, §2, §3

Structure (SMILES)	IC50 [1] [nM]	IC50 [2] [nM]
CN1CCN(C2CCN(c3cnc4c(-c5cc(C#N)nc6ccccc56)cnn4c3)CC2)CC1 [Compound 237]	240	6
CN1CCN(C2CCN(c3cnc4c(-c5cc(C(F)F)nc6ccccc56)cnn4c3)CC2)CC1 [Compound 238]	306	175
COc1cc2c(-c3cnn4cc(N5CCC(N6CCN(C)CC6)CC5)cnc34)ccnc2cc1O [Compound 239]	> 1000	32
CN1CCN(C2CCN(c3cnc4c(-c5ccnc6cc(F)c(Cl)cc56)cnn4c3)CC2)CC1 [Compound 240]	291	16
CN1CCN(C2CCN(c3cnc4c(-c5ccnc6ccc(Cl)cc56)cnn4c3)CC2)CC1 [Compound 241]	> 1000	92
CN1CCN(C2CCN(c3cnc4c(-c5ccnc6cc(F)c(O)cc56)cnn4c3)CC2)CC1 [Compound 242]	< 10	37
CN1CCN(C2CCN(c3cnc4c(-c5cccc6[nH]ncc56)cnn4c3)CC2)CC1 [Compound 243]	> 2000	> 1000
CN1CCN(C2CCN(c3cnc4c(-c5ccnc6cc(Cl)ccc56)cnn4c3)CC2)CC1 [Compound 244]	328	30
Cc1cc(-c2cnn3cc(N4CCC(N5CCN(C)CC5)CC4)cnc23)c2ccc(C(F)(F)F)cc2n1 [Compound 245]	468	> 1000
CN1CCN(C2CCN(c3cnc4c(-c5cnn(C)c5)cnn4c3)CC2)CC1 [Compound 246]	> 1000	> 1000
CN1CCN(C2CCN(c3cnc4c(-c5ccnc6[nH]ccc56)cnn4c3)CC2)CC1 [Compound 247]	> 3000	13
CN1CCN(C2CCN(c3cnc4c(-c5ccnc6ccsc56)cnn4c3)CC2)CC1 [Compound 248]	2880	57
CN1CCN(C2CCN(c3cnc4c(-c5ccnc(N)c5)cnn4c3)CC2)CC1 [Compound 249]	> 1000	> 1000
CN1CCN(C2CCN(c3cnc4c(-c5ccnc6sccc56)cnn4c3)CC2)CC1 [Compound 250]	202	17
CN1CCN(C2CCN(c3cnc4c(-c5ccnc6ccc(F)cc56)cnn4c3)CC2)CC1 [Compound 251]	209	26
CN1CCN(C2CCN(c3cnc4c(-c5ccnc6ccc(OC(F)(F)F)cc56)cnn4c3)CC2)CC1 [Compound 252]	12	85
CN1CCN(C2CCN(c3cnc4c(-c5ccnc6c5ccn6C)cnn4c3)CC2)CC1 [Compound 253]	> 1000	193
COc1ccc2c(-c3cnn4cc(N5CCC(N6CCN(C)CC6)CC5)cnc34)ccnc2c1 [Compound 254]	> 1000	244
Cc1cc(-c2cnn3cc(N4CCC(N5CCN(C)CC5)CC4)cnc23)c2ccc(F)cc2n1 [Compound 255]	28	68
CN1CCN(C2CCN(c3cnc4c(-c5ccnc6cc(F)ccc56)cnn4c3)CC2)CC1 [Compound 256]	104	10
CN1CCN(C2CCN(c3cnc4c(-c5ccnc6cc(C(F)(F)F)ccc56)cnn4c3)CC2)CC1 [Compound 257]	> 1000	> 1000
CNC(=O)c1cc(-c2cnn3cc(N4CCC(N5CCN(C)CC5)CC4)cnc23)ccn1 [Compound 258]	964	197
CN1CCN(C2CCN(c3cnc4c(-c5ccnc6c(F)cccc56)cnn4c3)CC2)CC1 [Compound 260]	229	12
CN1CCN(C2CCN(c3cnc4c(-c5ccnc6ncccc56)cnn4c3)CC2)CC1 [Compound 261]	916	19
CN1CCN(C2CCN(c3cnc4c(-c5ccnc6cc(OC(F)(F)F)ccc56)cnn4c3)CC2)CC1 [Compound 262]	> 3000	> 1000
CN1CCN(C2CCN(c3cnc4c(-c5ccnc6cc(C#N)ccc56)cnn4c3)CC2)CC1 [Compound 263]	424	295

Structure (SMILES)	IC50 [1] [nM]	IC50 [2] [nM]
CN1CCN(C2CCN(c3cnc4c(-c5ccnc6cc(F)c(N)cc56)cnn4c3)CC2)CC1 [Compound 264]	383	18
Cc1cc2c(-c3cnn4cc(N5CCC(N6CCN(C)CC6)CC5)cnc34)ccnc2cc1F [Compound 266]	138	17
CN1CCN(C2CCN(c3cnc4c(-c5ccnc6ccc(Cl)c(F)c56)cnn4c3)CC2)CC1 [Compound 267]	> 2000	162
Cc1cc(-c2cnn3cc(N4CCC(N5CCN(C)CC5)CC4)cnc23)c2cccc(C(F)(F)F)c2n1 [Compound 268]	> 1000	98
CN1CCN(C2CCN(c3cnc4c(-c5ccnc6cn[nH]c56)cnn4c3)CC2)CC1 [Compound 269]	> 3000	311
Cc1cccc2c(-c3cnn4cc(N5CCC(N6CCN(C)CC6)CC5)cnc34)ccnc12 [Compound 270]	> 3000	558
COc1ccc2ncc(F)c(-c3cnn4cc(N5CCC(N6CCN(C)CC6)CC5)cnc34)c2c1 [Compound 271]	> 3000	> 3000
COc1cc(-c2cnn3cc(N4CCC(N5CCN(C)CC5)CC4)cnc23)ccn1 [Compound 272]	> 1000	153
COc1cc(F)c2nccc(-c3cnn4cc(N5CCC(N6CCN(C)CC6)CC5)cnc34)c2c1 [Compound 273]	267	14
COc1cc(-c2cnn3cc(N4CCC(N5CCN(C)CC5)CC4)cnc23)cc(OC)c1OC [Compound 274]	321	32
Cc1cc(-c2cnn3cc(N4CCC(N5CCN(C)CC5)CC4)cnc23)c2cc(F)ccc2n1 [Compound 275]	72	133
Cc1cc(-c2cnn3cc(N4CCC(N5CCN(C)CC5)CC4)cnc23)c2cc(F)cc(F)c2n1 [Compound 276]	64	164
CN1CCN(C2CCN(c3cnc4c(-c5ccncc5)cnn4c3)CC2)CC1 [Compound 277]	> 3000	> 1000
Cc1ccc2nccc(-c3cnn4cc(N5CCC(N6CCN(C)CC6)CC5)cnc34)c2c1F [Compound 278]	897	31
CNc1ccc2nccc(-c3cnn4cc(N5CCC(N6CCN(C)CC6)CC5)cnc34)c2c1 [Compound 279]	> 1000	55
CN1CCN(C2CCN(c3cnc4c(-c5ccnc6ccc(N(C)C)cc56)cnn4c3)CC2)CC1 [Compound 280]	> 2000	26
CC(=O)Nc1ccc2nccc(-c3cnn4cc(N5CCC(N6CCN(C)CC6)CC5)cnc34)c2c1 [Compound 281]	> 3000	> 3000
COc1cc2c(-c3cnn4cc(N5CC6(CN(C)C6)C5)cnc34)ccnc2cc1F [Compound 282]	96	10
COc1cc2c(-c3cnn4cc(N5CCC6(CC5)CN(C)C6)cnc34)ccnc2cc1F [Compound 290]	63	12
CN1CCN(C2CN(c3cnc4c(-c5cccc6c(C(N)=O)cccc56)cnn4c3)C2)CC1 [Compound 307]	> 3000	> 1000
Cc1cc2c(-c3cnn4cc(N5CC(N6CCN(C)CC6)C5)cnc34)ccnc2cc1F [Compound 308]	595	159
COc1cc(-c2cnn3cc(N4CC(N5CCN(C)CC5)C4)cnc23)cc(OC)c1OC [Compound 309]	335	28
Cc1cc(-c2cnn3cc(N4CC(N5CCN(C)CC5)C4)cnc23)c2ccc(F)cc2n1 [Compound 310]	38	21
Cc1cc(-c2cnn3cc(N4CC(N5CCN(C)CC5)C4)cnc23)c2cc(F)cc(F)c2n1 [Compound 311]	60	33
CN1CCN(C2CN(c3cnc4c(-c5ccncc5)cnn4c3)C2)CC1 [Compound 313]	> 3000	2
